Where no end group is shown, it is not given here.
What follows are substances tested on REF^156–218 (REF2-I C-terminal domain) (assay: NMR 1H-15N correlation spectra of 15N-labelled REF^156–218 with added viral protein constructs). Details: 2-fold excess of viral construct; 15N-HSQC.
Type: binding, murine

Row | Substance | Changes in 1H-15N correlation spectra of 15N-REF^156–218 upon addition
1 | …SCKTSWADRVREAAAQRR [HVS ORF57^8–120, recombinant fragment aa 8–120 of Herpesvirus saimiri ORF57, with T7 and poly-His tags] | No significant changes

Each substance was assayed on GST-REF2-I (assay: GST-REF2-I pull down of 35S-radiolabelled ICP27 fragments). Details: 35S-radiolabelled protein from rabbit reticulocytes, glutathione beads, RB100 buffer pH 7.5, 10 µg/ml RNAse A; SDS-PAGE, PhosphoImage.
Type: binding, murine
Source text: To confirm the position of REF-binding domains within ICP27 and ORF57 and to minimise the size of constructs for more detailed NMR mapping, a series of fragments derived from HSV-1 ICP27 were screened for binding to GST-REF2-I using pull down assays (Fig. 1). […] The REF-binding fragment of ORF57 aa 8–120 identified previously similarly interacted with the same fragments of REF (Fig. 1D).
Figure 1 Identification of regions for the interactions between REF and ICP27/ORF57. (A) Subdivision of ICP27, ORF57 and REF2-I in fragments. […] (C) Fusion of the ICP27^103–138 peptide to GST allows a specific pull down of REF, REF^1–155 (NM) and REF^54–155 (Δ53) and a very weak pull down of the REF^1–70 (N); no interaction is detected with the control Ras protein. (D) Same pull down assay as panel C but using GST fusion of ORF57 aa 8–120 in place of ICP27.
GST or GST protein fusions were first immobilised on 30 µl slurry glutathione-coated beads (GE Healthcare) before 8 µl ^35S-radiolabelled proteins synthesised in rabbit reticulocytes (Promega) were added to the binding reactions in RB100 buffer (25 mM HEPES pH 7.5/100 mM KOAc/10 mM MgCl2/1 mM DTT/0.05% Triton X-100/10% glycerol) in presence of 10 µg/ml RNAse A. Washed and eluted protein complexes were resolved on 15% SDS-PAGE stained with Coomassie blue and analysed by PhosphoImage. […]

Row | Substance | Binding to GST-REF2-I in pull down
2 | ICP27^1–103: fragment aa 1–103 of HSV-1 ICP27 | no binding
3 | ICP27^139–512: fragment aa 139–512 of HSV-1 ICP27 | no binding

These substances were tested against T1, REF^54–155 (REF2-I RRM domain) (Mus musculus, UniProt Q9JJW6) (assay: NMR chemical shift titration of 15N-REF^54–155 with viral peptides (dissociation constants)). Details: not given.
T1 construct: made in house
Type: binding, murine
Description: A separate titration of each peptide was carried out under the same sample conditions. Increasing amounts of peptide were added to a ^15N-REF^54–155 sample, achieving binding saturation whenever possible. Throughout these titrations amide chemical shift changes were monitored to assess the relative binding affinity of these peptides for REF and simultaneously map their binding sites. Estimates of dissociation constants were obtained for each peptide, and for the longer viral adaptor fragments (Table 2). […] A reduction in affinity was more pronounced in the L108A mutant, with the R107A mutation virtually abolishing the binding. […] This agrees with the NMR mapping data that a longer sequence from ORF57 (residues 103–120) is involved in REF binding. […] These latter two viral adaptors lack the signature Trp residue, and additionally in KSHV-ORF57 the Arg within the triad is replaced by Lys. As a further control, we also checked if binding of the viral peptides is specific to the RRM domain of REF, or if it can occur with RRMs of other proteins as well. The proteins SF2 [37] and 9G8 [38] bind TAP/p15 and have roles in splicing and mRNA export somewhat similar to that of REF/Aly. They also contain an RRM domain and are therefore structurally homologous to REF/Aly. To test if the same ICP27 motif could interact with these RRM domains, we added a 5-fold excess of WT ICP27^103–112 peptide to ^15N-labelled SF2 [37] and 9G8 [38]. […] These experiments confirmed that the recognition of the REF RRM domain by viral adaptor proteins is highly specific, and the isolated peptides ICP27^103–112, ICP27^103–110 and ORF57^103–120 are able to bind REF as efficiently as longer fragments of these viral proteins.
All experiments were carried out at 30°C on Bruker DRX600, DRX700 and Varian Inova 800 MHz spectrometers equipped with cryoprobes. The weighted chemical shift changes of amide signals δCS caused by complex formation were measured as [drawing 1] , where Δδ^H and Δδ^N were changes in proton and nitrogen chemical shifts, respectively. Standard triple-resonance experiments were used to assign spectra of ICP27^103–138, ORF57^8–120 and REF^54–155 in their free and bound states. Additionally, carbon-detection experiments (CON, CaCO, CbCaCO, CbCaCO(N), CbCaNCO) were used as an aid to the ORF57 assignment. Spectra were processed using NMRpipe and Topspin 2.1 (Bruker) and analysed using Sparky (University of California). Distance restraints obtained from 3D ^15N- and ^13C edited NOESY-HSQC experiments (τm 120 ms) and dihedral restraints from TALOS [51] were used in structure calculations by CYANA [52]. Additionally, intermolecular contacts were unambiguously identified using ^13C edited, ^12C-filtered NOESY-HSQC (τm 150 ms) spectra acquired on Varian Inova 800 MHz spectrometer. In this experiment only NOE crosspeaks between ^1H-^13C moieties of ^13C,^15N-labelled REF and ^1H(^12C) of unlabelled ICP27 peptide were observed, [54]. A final ensemble contained 20 structures with lowest target function values. Images were generated using Pymol (DeLano Scientific). For the REF - ICP27 complex, structure coordinates and experimental constraints have been deposited into the Protein Data Bank and chemical shifts in the BioMagResBank (access numbers 2kt5 and bmr16683 respectively). Other chemical shift assignments deposited in the BioMagResBank are: free ICP27^103–138 bmr16696, free REF^54–155 bmr16697, and ORF57^8–120 bmr16698 (both free and bound to REF^54–155).
Unlabelled synthetic peptides were obtained from Peptide Protein Research Ltd (UK). The synthetic peptide sequences used were from Varicella-zoster virus ORF4^108–119 (AAY57694), Kaposi's sarcoma-associated herpesvirus ORF57^100–110 (YP_001129410), Herpesvirus Saimiri ORF57^103–120 & 105–115 (CAC84353), Herpes simplex virus 1 ICP27^103–110 & 103–112 (AAF43147). […]

Row | Substance | Kd
4 | KTSWADRVREA [HVS ORF57^105–115] | > 1000 µM
5 | NRYGKKIKFGT [KSHV ORF57^100–110, reference compound] | > 100000 µM
6 | SCKTSAADRVREAAAQRR [HVS ORF57^103–120 W108A] | > 7500 µM
7 | SCKTSWADAVREAAAQRR [HVS ORF57^103–120 R111A] | 254 ± 50 µM
8 | SCKTSWADRAREAAAQRR [HVS ORF57^103–120 V112A] | 156 ± 32 µM
9 | SVASRLGARR [ICP27^103–112 W105A] | 550 ± 210 µM
10 | SVWSALGARR [ICP27^103–112 R107A] | > 10000 µM
11 | SVWSRAGARR [ICP27^103–112 L108A] | > 5000 µM
12 | TGYARIERGHRR [VZV ORF4^108–119] | > 1000 µM

Same assay, conditions: chemical shift changes in 1H-15N correlation spectra of 100 µM 15N-REF^54–155 versus increasing peptide concentration, fitted to standard equation; 30°C; NMR buffer 20 mM phosphate, 50 mM NaCl, 50 mM L-Arg/L-Glu/β-mercaptoethanol, 10 mM EDTA, pH 6.2; read-out: K D

Row | Substance | Kd
13 | …SCKTSWADRVREAAAQRR [HVS ORF57^8–120, recombinant fragment aa 8–120 of Herpesvirus saimiri ORF57, with T7 and poly-His tags] | 78 ± 12 µM

From paper PMC3017119, “Structural Basis for the Recognition of Cellular mRNA Export Factor REF by Herpes Viral Proteins HSV-1 ICP27 and HVS ORF57” (PLoS Pathogens, 2011)
